Laboratory results from the supplement of paper PMC10307832.

Assays:
Assay in all cases: relative viability (nuclei count vs DMSO), 5 days (fraction); higher = more cells survive
VX-11e + Alpelisib = compound: CC1=CN=C(N=C1C2=CNC(=C2)C(=O)N[C@H](CO)C3=CC(=CC=C3)Cl)NC4=C(C=C(C=C4)F)Cl [VX-11e] + Cc1nc(NC(=O)N2CCC[C@H]2C(N)=O)sc1-c1ccnc(C(C)(C)C(F)(F)F)c1 [Alpelisib] (partner 2 µM)
Method in brief: (§1)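 Lung cancer cell lines in 1536-well plates were dosed by pin tool the day after seeding, either with one drug alone or with a fixed anchor-drug dose plus five library-drug doses (not always all listed) in √10 steps. After 5 days, cells were fixed and their nuclei stained in one step (final 0.05% Triton X-100, 1% formaldehyde, 1 ug/ml Hoechst), then counted on 4× images. Relative viability is the nuclei count in treated wells divided by that in vehicle wells. Values are medians of duplicate plates.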

VX-11e + Linsitinib = compound: CC1=CN=C(N=C1C2=CNC(=C2)C(=O)N[C@H](CO)C3=CC(=CC=C3)Cl)NC4=C(C=C(C=C4)F)Cl [VX-11e] + C[C@]1(O)C[C@@H](c2nc(-c3ccc4ccc(-c5ccccc5)nc4c3)c3c(N)nccn32)C1 [Linsitinib] (partner 1 µM)
Method in brief: as §1

VX-11e + Pictilisib = compound: CC1=CN=C(N=C1C2=CNC(=C2)C(=O)N[C@H](CO)C3=CC(=CC=C3)Cl)NC4=C(C=C(C=C4)F)Cl [VX-11e] + CS(=O)(=O)N1CCN(Cc2cc3nc(-c4cccc5[nH]ncc45)nc(N4CCOCC4)c3s2)CC1 [Pictilisib] (partner 1 µM)
Method in brief: as §1

VX-11e + Decitabine = compound: CC1=CN=C(N=C1C2=CNC(=C2)C(=O)N[C@H](CO)C3=CC(=CC=C3)Cl)NC4=C(C=C(C=C4)F)Cl [VX-11e] + Nc1ncn([C@H]2C[C@H](O)[C@@H](CO)O2)c(=O)n1 [Decitabine] (partner 2 µM)
Method in brief: as §1

| Cell Line | relative viability (VX-11e + Alpelisib; first compound 0.04 µM) | relative viability (VX-11e + Alpelisib; first compound 0.1265 µM) | relative viability (VX-11e + Alpelisib; first compound 0.4 µM) | relative viability (VX-11e + Alpelisib; first compound 1.265 µM) | relative viability (VX-11e + Alpelisib; first compound 4 µM) | relative viability (VX-11e + Linsitinib; first compound 0.04 µM) | relative viability (VX-11e + Linsitinib; first compound 0.1265 µM) | relative viability (VX-11e + Linsitinib; first compound 0.4 µM) | relative viability (VX-11e + Linsitinib; first compound 1.265 µM) | relative viability (VX-11e + Linsitinib; first compound 4 µM) | relative viability (VX-11e + Pictilisib; first compound 0.04 µM) | relative viability (VX-11e + Pictilisib; first compound 0.1265 µM) | relative viability (VX-11e + Pictilisib; first compound 0.4 µM) | relative viability (VX-11e + Pictilisib; first compound 1.265 µM) | relative viability (VX-11e + Pictilisib; first compound 4 µM) | relative viability (VX-11e + Decitabine; first compound 0.04 µM) | relative viability (VX-11e + Decitabine; first compound 0.1265 µM) | relative viability (VX-11e + Decitabine; first compound 0.4 µM) | relative viability (VX-11e + Decitabine; first compound 1.265 µM) | relative viability (VX-11e + Decitabine; first compound 4 µM) |
| --- | --- | --- | --- | --- | --- | --- | --- | --- | --- | --- | --- | --- | --- | --- | --- | --- | --- | --- | --- | --- |
| Calu-6 | 1.12 | 0.98 | 0.94 | 0.456 | 0.125 | 1.08 | 0.926 | 0.935 | 0.179 | 0.115 | 1.03 | 0.874 | 0.907 | 0.261 | 0.0991 |  |  |  |  |  |
| PC-3 [JPC-3] | 1.03 | 1.02 | 1 | 1.15 | 0.827 | 1.08 | 0.959 | 0.99 | 1.09 | 0.822 | 0.608 | 0.684 | 0.703 | 0.644 | 0.635 | 0.839 | 0.813 | 0.809 | 0.788 | 0.705 |
| NCI-H2023 | 0.59 | 0.611 | 0.572 | 0.458 | 0.257 | 0.727 | 0.692 | 0.596 | 0.362 | 0.283 | 0.2 | 0.215 | 0.0991 | 0.151 | 0.119 | 0.207 | 0.222 | 0.222 | 0.256 | 0.228 |
| NCI-H1563 | 0.86 | 0.84 | 0.897 | 0.917 | 0.874 | 1.21 | 1.2 | 1.22 | 1.11 | 1.06 | 0.662 | 0.538 | 0.559 | 0.656 | 0.625 |  |  |  |  |  |
| CAL-12T | 1.4 | 1.03 | 1.07 | 0.898 | 0.295 | 0.873 | 0.816 | 0.765 | 0.465 | 0.282 |  |  | 0.393 | 0.524 | 0.295 |  |  |  |  |  |
| 201T | 1.01 | 0.989 | 0.995 | 1.08 | 0.92 | 1.01 | 1.02 | 1 | 0.867 | 0.966 | 0.599 | 0.658 | 0.608 | 0.542 | 0.647 | 0.868 | 0.84 | 0.831 | 0.831 | 0.758 |
| EBC-1 | 0.816 | 0.766 | 0.632 | 0.693 | 0.23 | 0.954 | 0.872 | 0.494 | 0.371 | 0.19 | 0.494 | 0.436 | 0.378 | 0.201 | 0.162 |  |  |  |  |  |
| ChaGo-K-1 |  |  |  |  |  |  |  |  |  |  | 0.351 |  | 0.587 | 0.567 | 0.569 | 0.534 | 0.495 | 0.511 | 0.51 | 0.5 |
| SW 900 |  |  |  |  |  |  |  |  |  |  |  |  |  |  |  | 0.443 | 0.491 |  | 0.529 | 0.455 |
| NCI-H1650 |  |  |  |  |  |  |  |  |  |  | 0.531 | 0.451 | 0.171 | 0.276 | 0.303 | 0.523 | 0.406 | 0.468 | 0.522 | 0.526 |
| NCI-H1299 | 1.11 | 1.03 | 1.05 | 1.11 | 0.708 | 1.08 | 0.944 | 0.942 | 0.682 | 0.36 | 0.851 | 0.821 | 0.681 | 0.262 | 0.119 |  |  |  |  |  |
